Results reported in patent EP2633855A1, “Protease inhibitors for treating Trichomonas gallinae infections” (Veterinärmedizinische Universität Wien, priority 2012, dated 2013).
Square brackets hold non-standard residues; d marks the D form. Peptide text beside a SMILES is read from it. * marks the point of attachment. Sta = CC(C)C[C@H](N)[C@@H](O)CC(=O)O; Isovaleryl = CC(C)CC(=O)*

Assays:
[1] = test system: T. gallinae trophozoites; test: Viability of trichomonads with peptidase inhibitors (trypan blue staining); format: cell-based; settings: read-out: optimum concentration that had no effect on the viability of T. gallinae trophozoites
Protocol: (§1) The axenic clonal cultures of T. gallinae were grown in Hollander fluid (HF) medium, as described above (Amin et al., 2010). At first, clonal cultures which underwent only a few passages were investigated. Higher passages were obtained by transferring 1 ml of the respective culture into 9 ml of fresh HF medium every 48 h. Assessing the virulence as well as the effect of peptidase inhibitors was performed with an equal passage number (P18). After 24 h of incubation, the cultures were centrifuged at 3300 x g for 5 min (Hettich Rotanta 460, Tuttlingen, Germany). The pellet was washed three times by addition of phosphate buffer saline (PBS, pH 7.2) followed by centrifugation. For counting cells were suspended in 1 ml PBS buffer and motile trichomonads were determined by a Neubauer cell counting chamber (Reichert, Buffalo, NY, USA). The concentration of the inoculum was adjusted to contain approximately 5x10^6 actively motile trophozoites suspended in 200 µl PBS buffer. The viability of trichomonad cells was evaluated using trypan blue staining.

[2] = test system: LMH monolayer; test: Cytopathic effect of T. gallinae cell-free filtrate on LMH monolayer (monolayer detachment, lesion score); format: cell-based, chicken; settings: compared with filtrate without inhibitors
Protocol: Permanent chicken liver (LMH) cells were grown in Medium 199 + Earle's salts + L-Glutamine (Invitrogen/Gibco, Paisley, U.K.). The medium was supplemented with 10% of FBS, 10% Tryptose Phosphate broth, penicillin (40,000 IU/ml) and streptomycin ([…]) (all Invitrogen/Gibco, Paisley, U.K). One milliliter of the media suspension containing 1x10^6 cells was inoculated into 75 cm^2 flasks with filtered caps (Sarstedt, Wiener Neudorf, Austria) containing 6 ml medium. Cells were kept in a controlled atmosphere of 5% CO2 at 37°C and around 85-90% humidity. After 72 h of incubation, a confluent monolayer of LMH cells was obtained with an average of 7x10^6 cells per flask. Cells were passaged every three to four days depending on their density.
(§2) For the analysis on LMH monolayers cell-free filtrate was prepared in the following way: 10^7 cells of a clonal culture of T. gallinae were incubated at 37°C for 24 h in the same medium as used for growth of LMH. Before incubation the protozoal cells were washed three times in PBS, (pH 7.2), trichomonad culture was centrifuged at 3300 x g for 5 min and then the supernatant from the culture was filtered through 0.22 µm cellulose acetate filters (Millipore, VWR).
Each monolayer was investigated visually by an inverted 158 light microscope to detect the effect of the cell-free filtrates on LMH monolayer. Assesment of the monolayer was performed as recently described (Amin et al., Vet.Parasitol. (2011), doi: 10.1016/j.vetpar.2011.11.037).
Firstly, preliminary experiments were done to establish the concentration of each peptidase inhibitor which was not toxic to the monolayer cell culture. In these initial experiments different concentrations of the following peptidase inhibitors were added to not-infected monolayer: 0.2 mM, 0.5 mM, 1 mM Phenylmethylsulfonyl fluoride (PMSF) as serine peptidase inhibitor, 1 µM, 2.5 µM, 5 µM pepstatin A as aspartic peptidase inhibitor, 135 µM, 540 µM, 1 mM N-α-p-Tosyl-L-Lysine chloromethyl ketone (TLCK) as cysteine and some serine peptidase inhibitor, and 70 µM 140 µM, 270 µM L-3-carboxyl-2,3-trans-epoxysuccinylleucylamido (4-guanidino) butane (E-64) as cysteine peptidase inhibitor (all purchased from Sigma-Aldrich, Steinheim, Germany).

[3] = test system: T. gallinae clone 5895-C1/06 P18; test: Infection of spf chicken embryos with T. gallinae coincubated with peptidase inhibitors (mortality, necropsy, histology, PCR, ISH); format: in vivo, Trichomonas gallinae; settings: for detection of trichomonad nucleic acid by ISH / histopathological examination of different organs of infected embryos: spf chicken embryos
Protocol: as §1
(§3) For each treatment, ten 9-day old embryonated spf chicken eggs were inoculated with 200 µl of the individual sample of protozoa suspended in sterile PBS via the allantoic cavity following a standard egg inoculation procedure (Senne, 1998). In addition, ten eggs were inoculated in the same way with sterile PBS with and without an adjusted concentration of peptidase inhibitors, to be used as a control. The inoculated eggs were sealed with melted paraffin and incubated at 37°C at a relative humidity of 55-60%. The survival of the embryos was monitored by candling the eggs daily. At the end of the incubation period (10 days) the eggs were placed at -20°C for two hours to kill the embryos and to avoid hatching. The allantoic fluid was harvested and examined microscopically for the detection of flagellates, before the embryos were necropsied. Afterwards, samples from different organs (liver, heart, lung, proventriculus, gizzard, kidney, spleen, and intestine) were preserved in 10% buffered neutral formalin and later on embedded in paraffin wax for histological examination. […] Additionally, samples from liver and gut were preserved at -20°C for polymerase chain reaction (PCR). DNA was extracted from tissue samples applying the Dneasy® Tissue Kit (Qiagen, Vienna, Austria), according to the manufacturer instructions. PCR was performed following the protocol of Grabensteiner and Hess (Vet. Parasitol. 142 (2006), 223-230). The embryos that died during the experiments were exposed to the same examination procedures. During necropsy autoclaved scissors and disposable tweezers were used for collecting the samples to avoid cross contamination.

[4] = test system: LMH cells; test: CellTiter 96 aqueous one solution cytotoxicity assay of cell-free filtrate on LMH cells; format: cell-based, chicken; settings: Gallus gallus; 270 µM E-64; 72 h of incubation; clone 5895-C1/06, passage 18; filtrate without E-64: 70.9%; read-out: cytotoxicity of the cell-free filtrate on LMH cells in the presence of the inhibitor
Protocol: as §2
In order to investigate the cytotoxicity of cell-free filtrate on cell culture, CellTiter 96® aqueous one solution cell proliferation assay (Promega Corporation, Madison, USA) was used following manufacturer's instructions. The cell-free filtrate from 10^7 trichomonad cells was prepared as described above and 270 µM of E-64 as cysteine peptidase inhibitor was added to cell-free filtrate before its incubation with the monolayer. Cytotoxicity assay was performed as described recently by Amin et al. (2011).

[5] = test system: Entamoeba histolytica; settings: SCID mice; preincubation of the trophozoites with the inhibitor; cited from earlier work
[6] = test system: embryonated spf chicken eggs; test: Toxicity of peptidase inhibitors in PBS to non-infected spf chicken embryos (control groups); format: in vivo
Protocol: as §3, with “PCR was performed following the protocol of Grabensteiner and Hess (Vet. Parasitol. 142 (2006), 223-230). The embryos that died during the experiments were exposed to the same examination procedures. During necropsy autoclaved scissors and disposable tweezers were used for collecting the samples to avoid cross contamination.” left out

[7] = test system: peptidase activity in T. gallinae cell-free filtrates; test: Conventional 1-D SDS-PAGE of cell-free filtrates with and without peptidase inhibitors; format: biochemical; settings: clone 5895-C1/06 P49
Protocol: (§4) For analysis in one- (1-D) and two-dimensional (2-D) zymogram and conventional SDS PAGE the filtrate was prepared in the following way: T. gallinae clonal culture was grown in Hollander fluid (HF) medium as described recently (Amin et al., Exp. Parasitol. 124 (2010), 202-208). After 24 h of incubation, the trichomonad culture was centrifuged at 3300 x g for 5 min; the pellet was washed three times in phosphate buffer saline (PBS, pH 7.2) and was then suspended in 1 ml HF medium without serum. Motile trichomonads were counted by a Neubauer cell counting chamber (Reichert, Buffalo, NY). The concentration of the inoculum was adjusted to 10^7 motile trophozoites. 10^7 trichomonad cells were grown for 3, 6, 16, 24 h in 10 ml HF medium without serum and the cell-free filtrate was prepared. The trichomonad culture was centrifuged at 3300 x g for 5 min, and then the supernatant from the culture was filtered through 0.22 µm cellulose acetate filters (Millipore, VWR). Afterwards, 1 mM PMSF, 5 µM of Pepstatin A, 1 mM TLCK and 270 µM E-64 were added to the cell-free filtrate and incubated for 30 min on ice before concentrating the proteins. Two types of filters were used to concentrate the proteins of the cell-free filtrate. Firstly, CEN-TRIPREP® Centrifugal Filter Device 3K (Millipore, Vienna, Austria) was applied to reduce the initial volume of the filtrate (15ml) to 500 µl. After that, the samples were more concentrated using Amicon® Ultra-0.5 3K centrifugal filter device (Millipore, Vienna, Austria) to obtain a final volume of 100 µl. Both types of filters were used following manufacturer's instructions. With the samples for 2-dimensional (2-D) sodium dodecyl sulphate (SDS)-polyacrylamide gel electrophoresis (PAGE) buffer was exchanged (three times) to 10 mM Tris-Cl pH 7.2 by using the same Amicon® Ultra-0,5 3K centrifugal filter device (Millipore,Vienna, Austria). For all samples the protein concentration was measured by Bradford Reagent (Fermentas, Thermo Scientific).
(§5) For one dimension (1-D) zymographic analysis, 24 µg of concentrated p 183 proteins from cell free filtrates with and without peptidase inhibitors were separated by discontinuous SDS-PAGE (8%) copolymerized with 0.2% gelatin as substrate. In parallel, the same samples were investigated by conventional 1-D SDS-PAGE (8%). After electrophoresis, the substrate gel was incubated in 2.5% Triton X-100 (Bio-Rad Laboratories GmbH, Vienna, Austria) for 1 h at room temperature to remove SDS. Subsequently the peptidases were activated by incubating the gel in zymogram development buffer (Bio-Rad Laboratories GmbH, Vienna, Austria) for 24 h at 37 °C. […]

[8] = test system: peptidase activity in T. gallinae cell-free filtrates; test: One-dimensional substrate (0.2% gelatin) SDS-PAGE zymogram of cell-free filtrates; format: biochemical; settings: clone 5895-C1/06 P49 and P130
Protocol: as §4, §5

Q: For `CC(C)CC(NC(=O)C1OC1C(=O)O)C(=O)NCCCCNC(=N)N` [E-64, L-3-carboxyl-2,3-trans-epoxysuccinylleucylamido (4-guanidino) butane], which MNTC [1] is on record?
A: The MNTC was 270 µM.

Q: And the “cytopathic effects induced by trichomonads (detachment of the monolayer)” value (“cytopathic effects induced” for short) ([2]; 270 µM E64 added to cell-free filtrate of clone 5895-C1/06)?
A: The value was “best inhibition”.

Q: And the “cytopathic effects induced” value ([2]; 270 µM E64 added to cell-free filtrate of clone 5895-C1/06, listed as E64)?
A: Its value is “partially inhibited cytopathic effects”.

Q: What about the “PCR results: infection in the presence versus absence of inhibitor” value ([3]; 270 µM E-64) of the same compound?
A: Its value is “no considerable differences”.

Q: What about the “detection of trichomonad nucleic acid by ISH” value ([3]; 270 µM E-64) of the same compound?
A: Its value is “nucleic acid of trichomonds was demonstrated by ISH in the hepatic parenchyma”.

Q: And the “histopathological examination of different organs of infected embryos” value ([3]; 270 µM E-64)?
A: The value was “no histological changes”.

Q: And the “PCR results from the liver and gut of infected embryos” value ([3]; 270 µM E-64 coincubated)?
A: Its value is “positive PCR results”.

Q: What about the cytotoxicity at 270 µM [4] of the same compound?
A: Its cytotoxicity at 270 µM is 37.1%.

Q: And the “liver abscesses produced by Entamoeba histolytica” value [5]?
A: Its value is “greatly reduced”.

Q: What about the “cytotoxic effect on the embryos, mortalities or pathomorphological changes in negative control groups” value ([6]; 270 µM E-64 in PBS) of the same compound?
A: The value was “no cytotoxic effect on the embryos”.

Q: What about the “band pattern in conventional SDS-PAGE” value ([7]; 270 µM E-64) of the same compound?
A: The value was “pattern of sharp bands”.

Q: And the “proteolytic bands on zymograms of cell-free filtrates” value ([8]; 270 µM E-64)?
A: The value was “No proteolytic bands were observed”.

Q: Which results are given for `O=S(=O)(F)Cc1ccccc1` [PMSF, Phenylmethylsulfonyl fluoride]?
A: cytopathic effects induced by trichomonads (detachment of the monolayer) ([2]; 1 mM PMSF added to cell-free filtrate of clone 5895-C1/06): partially inhibited cytopathic effects; band pattern in conventional SDS-PAGE ([7]; 1 mM PMSF): this pattern was not prominent; proteolytic bands on zymograms of cell-free filtrates ([8]; 1 mM PMSF): same proteolytic regions as the sample without inhibitors

Q: For `CC(C)CC(=O)N[C@H](C(=O)N[C@H](C(=O)N[C@@H](CC(C)C)[C@@H](O)CC(=O)N[C@@H](C)C(=O)N[C@@H](CC(C)C)[C@@H](O)CC(=O)O)C(C)C)C(C)C` [Pepstatin A, pepstatin A] (Isovaleryl-VV[Sta]A[Sta]-OH), which “cytopathic effects induced” value ([2]; 5 µM Pepstatin A added to cell-free filtrate of clone 5895-C1/06) is on record?
A: The value was “no inhibitory effect”.

Q: And the “band pattern in conventional SDS-PAGE” value ([7]; 5 µM Pepstatin A)?
A: The value was “this pattern was not prominent”.

Q: And the “proteolytic bands on zymograms of cell-free filtrates” value ([8]; 5 µM Pepstatin A)?
A: Its value is “same proteolytic regions as the sample without inhibitors”.

Q: What does the source list for `Cc1ccc(S(=O)(=O)N[C@@H](CCCCN)C(=O)CCl)cc1` [TLCK, N-α-p-Tosyl-L-Lysine chloromethyl ketone]?
A: MNTC [1]: 675 µM; cytopathic effects induced by trichomonads (detachment of the monolayer) ([2]; 135 µM TLCK added to cell-free filtrate of clone 5895-C1/06): partially inhibited cytopathic effects; PCR results from the liver and gut of infected embryos ([3]; 675 µM TLCK coincubated): positive PCR results; PCR results: infiltration of the flagellate to the liver ([3]; 675 µM TLCK, compared with E-64): more distinct inhibitory effect on the infiltration of the flagellate to the liver than E-64; detection of trichomonad nucleic acid by ISH ([3]; 675 µM TLCK): nucleic acid of trichomonds was demonstrated by ISH in the hepatic parenchyma; histopathological examination of different organs of infected embryos ([3]; 675 µM TLCK): no histological changes; cytotoxic effect on the embryos, mortalities or pathomorphological changes in negative control groups ([6]; 675 µM TLCK in PBS): no cytotoxic effect on the embryos; band pattern in conventional SDS-PAGE ([7]; 1 mM TLCK): pattern of sharp bands; proteolytic bands on zymograms of cell-free filtrates ([8]; 1 mM TLCK): No proteolytic bands were observed
